# Experimental data published in paper PMC11938010, “Positive Charge in an Antimalarial Compound Unlocks Broad-Spectrum Antibacterial Activity” (JACS Au, 2025).
# Like-named read-outs stand apart in the source and are kept apart here.
# Legend:
# [1] = test system: Plasmodium falciparum NF54; assay: P. falciparum in vitro drug sensitivity assay on asexual blood stage parasites ([3H]-hypoxanthine incorporation); assay type: cell-based; settings: read-out: PfNF54 IC50
# Escherichia coli ∆tolC = assay: microbe, parasite or virus in culture; assay type: cell-based; settings: for MIC / inhibition at 50 µM: Escherichia coli; for inhibition at 50 µM: read-out: Ec∆tolC inh. at 50 µM (%)
# E. coli K12 = assay: In vitro antibacterial activity (growth inhibition, OD600), E. coli wild-type; assay type: cell-based; settings: Escherichia coli
# Acinetobacter baumannii = assay: In vitro antibacterial activity (growth inhibition, OD600), A. baumannii; assay type: cell-based
# [2] = test system: Streptococcus pneumoniae (DSM20566); assay: In vitro antibacterial activity (MIC), S. pneumoniae; assay type: cell-based; settings: Streptococcus pneumoniae, DSM20566, read-out: Sp MIC95
# [3] = test system: Staphylococcus aureus ssp. Aureus; assay: In vitro antibacterial activity (MIC), S. aureus; assay type: cell-based; settings: Staphylococcus aureus, read-out: Sa MIC95
# in vitro = settings: human, HepG2 CC50, 48 h, MTT
# [4] = test system: Pseudomonas aeruginosa PA14; assay: In vitro antibacterial activity (growth inhibition, OD600), P. aeruginosa; assay type: cell-based
# [5] = test system: Mycobacterium tuberculosis (Mtb) strain H37Rv; assay: microbe, parasite or virus in culture; assay type: cell-based; settings: 168 h, 7 days, footnote b: not active at maximum solubility, read-out: MtbH37Rv MIC90
# [6] = Plasmodium falciparum, NF54, Table 1 and main text
# [7] = K12, 50 µM, Table S1, with standard deviation, read-out: EcK12 inh. at 50 µM (%)
# [8] = 50 µM, Table S1, with standard deviation, read-out: Ab inh. at 50 µM (%)
# [9] = Table S2, with standard deviation
# [10] = PA14, 50 µM, Table S1, with standard deviation, read-out: PA14 inh. at 50 µM (%)
# [11] = K12, 50 μM compound, Table 1 and main text, read-out: EcK12 inh. at 50 μM
# [12] = 50 μM compound, Table 1 and main text, read-out: Ab inh. at 50 μM
# [13] = PA14, 50 μM compound, Table 1 and main text, read-out: PA14 inh. at 50 μM
SMILES,"IC50 [1, 6]",MIC (Escherichia coli ∆tolC; read-out: EcΔtolC MIC95),inhibition at 50 µM (Escherichia coli ∆tolC),inhibition at 50 µM (E. coli K12; [7]),inhibition at 50 µM (Acinetobacter baumannii; [8]),MIC ([2]; Table 1 and main text),"MIC [2, 9]",MIC ([3]; Table 1 and main text),"MIC [3, 9]",CC50 (in vitro),"inhibition at 50 µM [4, 10]",MIC90 [5],MIC (Escherichia coli ∆tolC; read-out: Ec∆tolC MIC95 (µM)),inhibition at 50 µM (E. coli K12; [11]),inhibition at 50 µM (Acinetobacter baumannii; [12]),"inhibition at 50 µM [4, 13]","inhibition at 50 µM (E. coli K12; K12, read-out: EcK12 inh. at 50 μM, 50 μM compound, Table 1 and main text)",IC50 ([1]; Table 1 and main text),EcΔtolC MIC95 (Escherichia coli ∆tolC; Table 1 and main text)
"CC(C)(C)OC(=O)NCc1ccc(NC(=O)c2cc(-c3cc(Cl)ccc3O)[nH]n2)cc1C(F)(F)F [Compound 10B, tert-Butyl (4-(5-(5-chloro-2-hydroxyphenyl)-1H-pyrazole-3-carboxamido)-2-(trifluoromethyl)benzyl)carbamate]",190 nM,> 50 µM,< 10%,< 10%,< 10%,> 50 µM,> 50 µM,> 50 µM,> 50 µM,> 50000 nM,–,–,–,–,–,–,–,–,–
"O=C(Nc1ccc(C(F)(F)F)c(N2CCNCC2)c1)c1cc(-c2cc(Cl)ccc2O)[nH]n1 [Compound 13A, 5-(5-Chloro-2-hydroxyphenyl)-N-(3-(piperazin-1-yl)-4-(trifluoromethyl)phenyl)-1H-pyrazole-3-carboxamide]",160 nM,> 50 µM,46 ± 5%,–,< 10%,29 µM,29 ± 2 µM,> 50 µM,> 50 µM,8000 nM,< 10%,32 µM,–,–,–,–,–,–,–
O=C(Nc1cccc(CNC2=NCCN2)c1)c1cc(-c2cc(Cl)ccc2O)[nH]n1 [Compound 7C],390 nM,13 µM,–,29.4 ± 0.6%,–,48.2 µM,48.2 ± 0.8 µM,22.3 µM,22.3 ± 0.6 µM,> 50000 nM,–,32 µM,13 ± 3 µM,29%,33%,41%,–,–,–
CC(C)(C)OC(=O)N1CCN=C1NCc1cccc(NC(=O)c2cc(-c3cc(Cl)ccc3O)[nH]n2)c1 [Compound 7D],360 nM,14 µM,–,–,–,31 µM,31 ± 11 µM,24 µM,24 µM,19000 nM,54.8 ± 0.8%,64 µM,14 ± 4 µM,–,–,≥ 45%,≥ 45%,–,–
"O=C(Nc1ccc(N2CCNCC2)c(C(F)(F)F)c1)c1cc(-c2cc(Cl)ccc2O)[nH]n1 [Compound 12A, 5-(5-Chloro-2-hydroxyphenyl)-N-(4-(piperazin-1-yl)-3-(trifluoromethyl)phenyl)-1H-pyrazole-3-carboxamide]",≤ 60 nM,18.9 µM,–,–,–,8 µM,8 ± 2 µM,14 µM,14 ± 2 µM,6000 nM,–,16 µM,18.9 ± 0.5 µM,12%,29%,< 10%,–,60 nM,–
N=C(N)N1CCN(c2cccc(NC(=O)c3cc(-c4cc(Cl)ccc4O)[nH]n3)c2)CC1 [Compound 5G],930 nM,11 µM,–,–,–,48 µM,48 ± 1 µM,23.1 µM,23.1 ± 0.5 µM,> 50000 nM,–,64 µM,11 ± 2 µM,32%,< 10%,31%,–,–,–
CC(C)(C)OC(=O)N1CCN=C1NCc1cc(NC(=O)c2cc(-c3cc(Cl)ccc3O)[nH]n2)cc(C(F)(F)F)c1 [Compound 9D],150 nM,24 µM,–,–,81.6 ± 0.6%,21 µM,21 ± 9 µM,12 µM,12 ± 3 µM,14000 nM,–,16 µM,24 µM,–,–,21%,–,–,24.0 µM
NCc1ccc(NC(=O)c2cc(-c3cc(Cl)ccc3O)[nH]n2)cc1C(F)(F)F [Compound 10A],150 nM,22.9 µM,–,–,–,23 µM,23 ± 3 µM,29 µM,29 ± 3 µM,13000 nM,–,64 µM,22.9 ± 0.1 µM,61%,86%,< 10%,–,–,–
